The source of these data is patent publication US10322998B2, “Heterogeneous foldamers containing α, β, and/or γ-amino acids” (WISCONSIN ALUMNI RESEARCH FOUNDATION, priority 2002, dated 2019).

This data set is described as follows: Solubility, qualitative observations during synthesis and characterisation.

Take `CC(=O)NC1CCCC1C(=O)N[C@@H](Cc1ccccc1)C(=O)NC1CCCC1C(=O)N[C@@H](Cc1ccccc1)C(=O)NC1CCCC1C(=O)N[C@@H](Cc1ccccc1)C(N)=O` (stereo partly shown) [Peptide 42]: the “solubility in common solvents” value (crude compound, water, methanol, acetonitrile, acetone, ethyl acetate, methylene chloride, DMSO) is listed as “insoluble”.

As to `COC(=O)[C@H]1CC[C@H](NC(=O)[C@H]2CC[C@H](NC(=O)[C@H]3CC[C@H](NC(=O)[C@H]4CC[C@H](NC(=O)OC(C)(C)C)C4)C3)C2)C1` [Compound 7], the “solubility in other solvents” value (solvents other than 1:1 CDCl3:CD3OD) was “poor solubility”. Consider `CC(C)[C@@H](NC(=O)OC(C)(C)C)C(=O)N[C@@H]1CCCC[C@H]1C(=O)N[C@@H](C(=O)N[C@@H]1CCCC[C@H]1C(=O)OCc1ccccc1)C(C)C` [2-28, Boc-D-Val-ACHC-D-Val-ACHC-Olin], for which, for the setting “organic solvents, crude product”, the “solubility in organic solvents” value is “poor solubility”. On to `CC(C)(CNC(=O)[C@H]1CC[C@H](NC(=O)[C@H]2CC[C@H](NC(=O)Cc3ccccc3)C2)C1)NC(=O)[C@H]1CCCN1C(=O)[C@H]1CC[C@H](NC(=O)[C@H]2CC[C@H](NC(=O)C(C)(C)C)C2)C1` [compound 3], for which the “solubility in CD2Cl2” value (CD2Cl2) is on record as “nearly insoluble”.
